Holding throughout (assay): NCI tumour cell line growth inhibition, 48 h
In assay [1] the test system is K-562 leukemia.
For assay [2], the system named is MDA-MB-231 breast.
Assay [3] has as its system HL-60(TB) leukemia.
The test system of assay [4] is HCC-2998 colon.
Assay [5] deals with MDA-MB-435.
For assay [6], the system named is SF-295 CNS.
The subject of assay [7] is A549 NSCLC.
Assay [8] concerns SK-MEL-2 melanoma.
Assay [9] has as its system TK-10 renal.
The subject of assay [10] is EKVX NSCLC.
Assay [11] relates to SNB-19 CNS.
For assay [12], the system named is MCF7 breast.
For assay [13], the system named is A498 renal.
Assay [14] deals with NCI-H23 lung.
Assay [15] has as its system SK-MEL-28 melanoma.
Assay [16] deals with HT29 colon.
Assay [17] relates to NCI/ADR-RES ovarian.
The test system of assay [18] is DU-145 prostate.
Assay [19] concerns MOLT-4 leukemia.
Assay [20] has as its system M14 melanoma.

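Five compound concentrations were applied to cells in 96-well plates for 48 hours; endpoints were derived by simple linear interpolation of the resulting dose-response curve. TGI is the concentration that stops growth completely.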

Take `CC1(C)C(=O)C2(C#N)CCC1C2` (stereo not given): the TGI in [1], in assay [2], in assay [3], in assay [4], in assay [5] and in [6] was more than 100 µM in each case. Besides, the TGI in assay [7], in assay [8], in [9], in assay [10], in assay [11] and in assay [12] was more than 100 µM in each case. In addition, the TGI in [13], in assay [14], in [15], in assay [16], in [17] and in assay [18] was more than 100 µM in each case. Further, the TGI in assay [19] and in [20] was more than 100 µM in each case.

`CCOc1cc(NC(C)=O)ccc1C(=O)NN1C(=O)CSC1c1ccc(O)c(OC)c1` (stereo not given): the TGI in [1], in assay [2], in assay [3], in [4], in [5] and in [6] was more than 100 µM in each case. In addition, the TGI in [7] was more than 100 µM; in assay [8] it was more than 100 µM; in assay [9], 39.3 µM; in [10], more than 100 µM; in assay [11], more than 100 µM; in assay [12], more than 100 µM. The TGI in assay [13], in assay [14], in assay [15], in assay [16], in [17] and in assay [18] was more than 100 µM throughout. The TGI in [19] and in assay [20] was more than 100 µM in each case.

Regarding `FC(F)(F)C1(C(F)(F)F)C2CCC3(CC(F)(F)C(F)(F)S3)C1C2` (stereo not given), the TGI is more than 100 µM in assay [1]; more than 100 µM in assay [2]; 51.8 µM in assay [3]; more than 100 µM in [4]; more than 100 µM in assay [5]; more than 100 µM in assay [6]. Further, the TGI was more than 100 µM in assay [7]; 49.1 µM in assay [8]; more than 100 µM in assay [9]; 96.6 µM in assay [10]; more than 100 µM in assay [11]; 84.3 µM in [12]. Moreover, the TGI in assay [13], in assay [14], in assay [15], in [16], in assay [17] and in assay [18] was more than 100 µM in each case. Besides, the TGI is 46.4 µM in [19] and more than 100 µM in [20].
